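Assay format: 96-well plates, 48-hour exposure. GI50 = concentration required for 50% inhibition of growth. The concentration for full growth arrest is given as TGI.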 Some results are limits rather than exact numbers.

Some test systems named below: SK-OV-3 ovarian; BT-549 breast; EKVX NSCLC; SK-MEL-5 melanoma; SR leukemia; MCF7 breast; HCT-15 colon; SW-620 colon; UACC-257 melanoma; A498 renal.
Test in all cases: growth of human tumour cells (NCI), 48 h

For the compound `COC(=O)[C@]1(C)CCC[C@]2(C)[C@@H]1CCC13C[C@@H](C=CO1)[C@@H](C)CC32O` (some centres undefined), the GI50 in the experiment with SK-OV-3 ovarian was more than 100 µM; with BT-549 breast, more than 100 µM; in the experiment with EKVX NSCLC it was 2.07 µM; in the experiment with SK-MEL-5 melanoma, 34 µM; with SR leukemia, 17.1 µM; in the experiment with MCF7 breast it was 25.7 µM. Further, the figures for the GI50 in the experiment with HCT-15 colon, in the experiment on SW-620 colon and in the experiment on UACC-257 melanoma were more than 100 µM, more than 100 µM and 70 µM, respectively. The TGI in the experiment on SK-OV-3 ovarian, with BT-549 breast, with EKVX NSCLC, in the experiment on SK-MEL-5 melanoma, in the experiment with SR leukemia and with MCF7 breast was more than 100 µM each time. The TGI with HCT-15 colon, with SW-620 colon and in the experiment with UACC-257 melanoma was more than 100 µM throughout.
For `CCOc1ccc(Nc2nc(-c3c(C)nc4ncccn34)cs2)cc1`, the GI50 is 0.017 µM in the experiment with SK-OV-3 ovarian; 0.0268 µM in the experiment on BT-549 breast; 0.0453 µM with SK-MEL-5 melanoma; 0.0153 µM in the experiment with SR leukemia; less than 0.01 µM in the experiment on A498 renal; 0.412 µM in the experiment with MCF7 breast. The GI50 in the experiment with HCT-15 colon was 0.0467 µM; in the experiment on SW-620 colon, 0.0218 µM; with UACC-257 melanoma it was 6.77 µM. Also, the TGI with SK-OV-3 ovarian came out at 5.48 µM; in the experiment with BT-549 breast, 14.9 µM; in the experiment on SK-MEL-5 melanoma, 1.96 µM; in the experiment with SR leukemia, 19.7 µM; in the experiment on A498 renal it was 0.0678 µM; with MCF7 breast it was 14.9 µM. For the same compound, the TGI in the experiment on HCT-15 colon came to 15.4 µM; in the experiment on SW-620 colon, 16 µM; with UACC-257 melanoma it was 21.3 µM.
In the case of `COc1cc(OC)cc(-c2ccc(-c3ccc(C(=N)N)cn3)s2)c1`, the GI50 in the experiment with SK-OV-3 ovarian is 11.3 µM; in the experiment with BT-549 breast, 10.5 µM; in the experiment on EKVX NSCLC, 2.58 µM; in the experiment on SK-MEL-5 melanoma, 1.77 µM; with SR leukemia, 3.51 µM; in the experiment with MCF7 breast, 1.77 µM. For the same compound, the values for the GI50 with HCT-15 colon, in the experiment with SW-620 colon and in the experiment with UACC-257 melanoma were 1.81 µM, 1.91 µM and 2.29 µM, respectively. For the same compound, the TGI in the experiment with SK-OV-3 ovarian was determined as 26.2 µM; in the experiment with BT-549 breast it was 26.4 µM; in the experiment on EKVX NSCLC it was 7.17 µM; with SK-MEL-5 melanoma, 3.16 µM; with SR leukemia, 10.9 µM; with MCF7 breast it was 3.6 µM. In addition, the TGI in the experiment with HCT-15 colon was 3.49 µM; in the experiment on SW-620 colon, 3.8 µM; with UACC-257 melanoma, 4.49 µM.
On to `O=C(c1ccccc1)C(Br)C(Br)c1ccccc1` (centres undefined), for which the GI50 in the experiment with SK-OV-3 ovarian was 15.3 µM; with BT-549 breast it was 12.8 µM; in the experiment with EKVX NSCLC it was 14.6 µM; with SK-MEL-5 melanoma, 12.6 µM; in the experiment with A498 renal, 12.8 µM; with MCF7 breast, 1.79 µM. Besides, the GI50 in the experiment with HCT-15 colon is 2.96 µM; in the experiment with SW-620 colon, 1.69 µM; in the experiment on UACC-257 melanoma, 3.2 µM. Besides, the TGI with SK-OV-3 ovarian is 28.8 µM; in the experiment on BT-549 breast it was 25.6 µM; in the experiment on EKVX NSCLC, 32.7 µM; with SK-MEL-5 melanoma it was 25.6 µM; in the experiment with A498 renal it was 25.5 µM; in the experiment with MCF7 breast, 7.85 µM. The TGI with HCT-15 colon was 9.76 µM; in the experiment on SW-620 colon it was 3.28 µM; in the experiment with UACC-257 melanoma, 8.04 µM.
As to `COc1ccc(/C=C/C(C)=N/OCC(=O)Nc2ccc(Cl)cc2)cc1`, the GI50 with SK-OV-3 ovarian is 5.27 µM; with BT-549 breast it was 2.71 µM; in the experiment on SK-MEL-5 melanoma it was 2.36 µM; with SR leukemia, 2.24 µM; in the experiment on A498 renal it was 2.54 µM; with MCF7 breast, 2.3 µM. Also, the GI50 is 2.14 µM in the experiment on HCT-15 colon, 3.13 µM in the experiment with SW-620 colon and 3.4 µM in the experiment with UACC-257 melanoma. Moreover, the TGI was 42.4 µM with SK-OV-3 ovarian; 14.4 µM in the experiment on BT-549 breast; 7.98 µM in the experiment on SK-MEL-5 melanoma; 10.6 µM with SR leukemia; 16.6 µM with A498 renal; 18.8 µM in the experiment with MCF7 breast. The values for the TGI in the experiment on HCT-15 colon, in the experiment with SW-620 colon and in the experiment on UACC-257 melanoma were 15.6 µM, 20.1 µM and 22.2 µM, respectively.
With `COC(=O)[C@H](Cc1cn(C)cn1)NC(=O)[C@@H](NC(=O)Nc1cc(C(F)(F)F)cc(C(F)(F)F)c1)C(C)C`, the GI50 with SK-OV-3 ovarian is more than 10 µM; in the experiment on BT-549 breast it was 2.51 µM; in the experiment with SK-MEL-5 melanoma it was 2.98 µM; in the experiment with SR leukemia, 3.08 µM; with A498 renal, more than 10 µM; in the experiment on MCF7 breast it was 1.98 µM. For the same compound, the values for the GI50 with HCT-15 colon, in the experiment on SW-620 colon and in the experiment on UACC-257 melanoma were more than 10 µM, 2.59 µM and more than 10 µM, respectively. Moreover, the TGI with SK-OV-3 ovarian was more than 10 µM; in the experiment on BT-549 breast, 7.9 µM; with SK-MEL-5 melanoma it was more than 10 µM; in the experiment on SR leukemia, more than 10 µM; in the experiment on A498 renal it was more than 10 µM; with MCF7 breast it was 4.67 µM. Moreover, the TGI in the experiment on HCT-15 colon was more than 10 µM; with SW-620 colon, 8.25 µM; in the experiment on UACC-257 melanoma it was more than 10 µM.
`COc1ccc(Cc2nc3cc(OC)c(OC)cc3c(=O)[nH]2)cc1`: the GI50 was 88.5 µM in the experiment with SK-OV-3 ovarian; 4.84 µM in the experiment with BT-549 breast; 17.3 µM with EKVX NSCLC; 9.33 µM with SK-MEL-5 melanoma; 18.6 µM in the experiment with A498 renal; 5.32 µM in the experiment with MCF7 breast. The GI50 in the experiment on HCT-15 colon is 3.57 µM; with SW-620 colon, 3.32 µM; in the experiment on UACC-257 melanoma it was 6.42 µM. In addition, the TGI is more than 100 µM in the experiment on SK-OV-3 ovarian; 29.7 µM with BT-549 breast; more than 92.5 µM in the experiment with EKVX NSCLC; 28.8 µM with SK-MEL-5 melanoma; 66.9 µM in the experiment on A498 renal; more than 47.5 µM in the experiment on MCF7 breast. For the same compound, the TGI in the experiment with HCT-15 colon is more than 100 µM; in the experiment on SW-620 colon, more than 63.5 µM; with UACC-257 melanoma it was 32.1 µM.
For the compound `COc1ccc(/C(C)=C(\c2ccc(Cl)cc2)c2ccc(OCCN3CCCCCC3)cc2)cc1F`, the GI50 in the experiment on SK-OV-3 ovarian was 5.05 µM; in the experiment with BT-549 breast, 2.79 µM; in the experiment with EKVX NSCLC, 5.54 µM; with SK-MEL-5 melanoma, 2.89 µM; in the experiment on SR leukemia, 2.26 µM; in the experiment with MCF7 breast it was 3.59 µM. The figures for the GI50 in the experiment on HCT-15 colon, with SW-620 colon and in the experiment with UACC-257 melanoma were 0.668 µM, 2.14 µM and 3.4 µM, respectively. In addition, the TGI in the experiment with SK-OV-3 ovarian is 16.6 µM; in the experiment with BT-549 breast, 6.74 µM; with EKVX NSCLC, more than 16.7 µM; with SK-MEL-5 melanoma, 5.27 µM; in the experiment on SR leukemia, 12.3 µM; with MCF7 breast, 11.1 µM. Further, the TGI was 2.85 µM with HCT-15 colon, 4.81 µM with SW-620 colon and 7.87 µM in the experiment on UACC-257 melanoma.

The values above are taken from PubChem BioAssay (NCI).
